Test results as given in patent US9938281B2 (Merck Sharp & Dohme Corp., priority 2012, dated 2018).

Columns and labels:
PI3K-delta = target: T1, PI3K-delta (Homo sapiens, UniProt O00329); test: HTRF PI3K biochemical assay, delta isoform; details: form screened (neutral or TFA salt) given, read-out: PI3Kdelta IC50
T1 construct: purchased Upstate; Millipore 14-604

PI3K-alpha = target: T2, PI3K-alpha (Homo sapiens, UniProt P42336); test: HTRF PI3K biochemical assay, alpha isoform; details: ratio PI3K-alpha IC50 value / PI3K-delta IC50 value
T2 construct: purchased Upstate; Millipore 14-602
T2 sequence (P42336 whole entry, canonical isoform): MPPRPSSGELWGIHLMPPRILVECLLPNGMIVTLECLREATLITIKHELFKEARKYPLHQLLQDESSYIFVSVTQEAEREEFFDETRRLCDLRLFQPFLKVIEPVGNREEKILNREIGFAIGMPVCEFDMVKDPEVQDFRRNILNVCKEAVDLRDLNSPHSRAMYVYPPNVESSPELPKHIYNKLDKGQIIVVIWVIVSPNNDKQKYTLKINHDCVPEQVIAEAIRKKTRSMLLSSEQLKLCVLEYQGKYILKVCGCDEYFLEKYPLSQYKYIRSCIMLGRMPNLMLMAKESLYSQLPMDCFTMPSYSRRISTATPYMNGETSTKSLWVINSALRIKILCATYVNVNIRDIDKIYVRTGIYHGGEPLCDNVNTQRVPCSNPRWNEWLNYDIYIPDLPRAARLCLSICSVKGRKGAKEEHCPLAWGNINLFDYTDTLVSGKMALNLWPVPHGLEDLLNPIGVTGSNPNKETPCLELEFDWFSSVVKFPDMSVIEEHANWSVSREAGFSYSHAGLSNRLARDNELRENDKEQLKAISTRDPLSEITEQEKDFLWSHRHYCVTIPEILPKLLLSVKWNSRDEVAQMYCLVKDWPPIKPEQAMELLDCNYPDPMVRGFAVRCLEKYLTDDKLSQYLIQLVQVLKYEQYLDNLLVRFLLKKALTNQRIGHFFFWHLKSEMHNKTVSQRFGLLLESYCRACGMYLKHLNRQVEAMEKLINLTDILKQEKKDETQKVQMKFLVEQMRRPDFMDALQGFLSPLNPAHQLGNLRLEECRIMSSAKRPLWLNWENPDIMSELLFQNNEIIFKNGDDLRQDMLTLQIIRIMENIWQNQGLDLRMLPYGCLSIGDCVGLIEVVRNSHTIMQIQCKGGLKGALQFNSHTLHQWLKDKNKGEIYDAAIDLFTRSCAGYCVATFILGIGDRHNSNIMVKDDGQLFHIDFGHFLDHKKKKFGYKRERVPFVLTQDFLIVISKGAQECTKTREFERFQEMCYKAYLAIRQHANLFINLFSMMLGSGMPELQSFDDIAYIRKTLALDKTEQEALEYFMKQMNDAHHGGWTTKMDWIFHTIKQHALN
T2 sequence (P27986 whole entry partner, canonical isoform): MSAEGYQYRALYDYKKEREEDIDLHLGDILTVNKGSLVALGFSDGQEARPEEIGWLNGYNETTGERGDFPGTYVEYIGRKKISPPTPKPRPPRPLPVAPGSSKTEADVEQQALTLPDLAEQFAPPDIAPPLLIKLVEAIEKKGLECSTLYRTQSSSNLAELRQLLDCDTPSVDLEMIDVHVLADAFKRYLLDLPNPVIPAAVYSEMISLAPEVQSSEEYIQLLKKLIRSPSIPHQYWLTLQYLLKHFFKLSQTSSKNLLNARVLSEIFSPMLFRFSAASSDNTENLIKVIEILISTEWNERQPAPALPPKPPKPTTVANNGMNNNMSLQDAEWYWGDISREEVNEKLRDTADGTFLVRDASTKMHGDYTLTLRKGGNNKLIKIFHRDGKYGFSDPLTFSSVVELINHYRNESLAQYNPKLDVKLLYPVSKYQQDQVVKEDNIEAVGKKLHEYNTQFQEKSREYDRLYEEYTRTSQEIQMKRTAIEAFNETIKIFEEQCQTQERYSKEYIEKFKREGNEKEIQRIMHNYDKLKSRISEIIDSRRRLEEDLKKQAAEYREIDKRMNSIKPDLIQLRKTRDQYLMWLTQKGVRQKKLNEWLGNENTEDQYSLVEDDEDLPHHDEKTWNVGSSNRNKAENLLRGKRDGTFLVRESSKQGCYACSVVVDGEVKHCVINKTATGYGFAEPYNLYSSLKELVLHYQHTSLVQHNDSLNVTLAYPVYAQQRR

T1 sequence (O00329 whole entry, canonical isoform): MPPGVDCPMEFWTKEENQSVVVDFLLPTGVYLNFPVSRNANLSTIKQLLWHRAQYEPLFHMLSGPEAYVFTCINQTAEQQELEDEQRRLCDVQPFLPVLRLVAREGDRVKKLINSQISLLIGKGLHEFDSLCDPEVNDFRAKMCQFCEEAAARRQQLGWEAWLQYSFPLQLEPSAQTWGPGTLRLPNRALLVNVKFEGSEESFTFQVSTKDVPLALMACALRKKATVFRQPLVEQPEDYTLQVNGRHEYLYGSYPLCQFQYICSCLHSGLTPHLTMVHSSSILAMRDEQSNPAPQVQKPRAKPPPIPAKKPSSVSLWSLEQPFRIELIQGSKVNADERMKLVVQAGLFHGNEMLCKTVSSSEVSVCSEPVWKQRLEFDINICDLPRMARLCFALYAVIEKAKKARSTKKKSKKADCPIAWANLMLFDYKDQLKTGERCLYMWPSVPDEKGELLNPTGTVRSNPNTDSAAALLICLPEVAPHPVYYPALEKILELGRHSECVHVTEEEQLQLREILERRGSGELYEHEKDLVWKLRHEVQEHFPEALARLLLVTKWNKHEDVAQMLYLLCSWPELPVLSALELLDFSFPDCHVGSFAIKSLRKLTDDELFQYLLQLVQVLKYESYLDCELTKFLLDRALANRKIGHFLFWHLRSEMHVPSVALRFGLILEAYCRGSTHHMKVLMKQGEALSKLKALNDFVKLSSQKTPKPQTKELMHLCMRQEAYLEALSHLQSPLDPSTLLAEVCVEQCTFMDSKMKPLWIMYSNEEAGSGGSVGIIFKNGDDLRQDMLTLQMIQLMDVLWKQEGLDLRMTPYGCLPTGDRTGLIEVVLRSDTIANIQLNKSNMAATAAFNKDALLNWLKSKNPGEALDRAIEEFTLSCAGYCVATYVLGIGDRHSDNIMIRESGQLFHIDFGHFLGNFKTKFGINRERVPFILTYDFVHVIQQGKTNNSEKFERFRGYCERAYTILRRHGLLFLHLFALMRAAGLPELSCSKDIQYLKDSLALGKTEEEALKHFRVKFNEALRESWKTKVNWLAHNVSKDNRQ
T1 sequence (P27986 whole entry partner, canonical isoform): as the sequence (P27986 whole entry partner, canonical isoform) above

Row | IC50 (PI3K-delta) | Selectivity versus PI3Kalpha (PI3K-alpha) | SMILES
1 | 0.035 µM | >10 | CCn1c(-c2cnc(C)nc2)nc2c(N[C@H]3CC[C@H](C(=O)N4CCC4)C3)ncnc21 [Compound 5-2, N-[(1S,3S)-3-(azetidin-1-ylcarbonyl)cyclopentyl]-9-ethyl-8-(2-methylpyrimidin-5-yl)-9H-purin-6-amine]
2 | 0.0049 µM | >10 | CCn1c(-c2cnc(C)nc2)nc2c(N[C@H]3C[C@H](CO)N(C(=O)C4CC4)C3)ncnc21 [Compound 2-52, [(2R,4S)-1-(cyclopropylcarbonyl)-4-{[9-ethyl-8-(2-methylpyrimidin-5-yl)-9H-purin-6-yl]amino}pyrrolidin-2-yl]methanol]
3 | 0.0087 µM | >10 | CCn1c(-c2cnc(C)nc2)nc2c(N[C@H]3CCN(C(=O)OCCF)C3)ncnc21 [Compound 13-3, 2-fluoroethyl (3S)-3-{[9-ethyl-8-(2-methylpyrimidin-5-yl)-9H-purin-6-yl]amino}pyrrolidine-1-carboxylate]
4 | < 0.001 µM | >10 | CCC(=O)N1CC[C@H](Nc2ncnc3c2nc(-c2cnn(CC)c2C)n3C)C1 [Compound 2-3, (S)-1-(3-((8-(1-ethyl-5-methyl-1H-pyrazol-4-yl)-9-methyl-9H-purin-6-yl)amino)pyrrolidin-1-yl)propan-1-one]
5 | 0.024 µM | >10 | CCCN1CC(Nc2ncnc3c2nc(-c2cnc(C)nc2)n3CC)CC1=O (racemic) [Compound 14-4, 4(S and R)-{[9-ethyl-8-(2-methylpyrimidin-5-yl)-9H-purin-6-yl]amino}-1-propylpyrrolidin-2-one]
6 | 0.0021 µM | >10 | CCC(=O)N1CC[C@H](Nc2ncnc3c2nc(-c2ccc(Cl)nc2)n3C)C1 [Compound 3-14, 8-(6-chloropyridin-3-yl)-9-methyl-N-[(3S)-1-propanoylpyrrolidin-3-yl]-9H-purin-6-amine]
7 | 0.003 µM | >10 | CCn1c(-c2cnc(C)nc2)nc2c(N[C@H]3C[C@H](C(N)=O)N(C(=O)C4CC4)C3)ncnc21 [Compound 15-5, (4S)-1-(cyclopropylcarbonyl)-4-{[9-ethyl-8-(2-methylpyrimidin-5-yl)-9H-purin-6-yl]amino}-D-prolinamide]
8 | < 0.001 µM | >10 | CCC(=O)N1CC[C@H](Nc2ncnc3c2nc(-c2cnn(-c4ccccc4)c2C)n3C)C1 [Compound 3-11, 9-methyl-8-(5-methyl-1-phenyl-1H-pyrazol-4-yl)-N-[(3S)-1-propanoylpyrrolidin-3-yl]-9H-purin-6-amine]
9 | < 0.001 µM | >10 | CCn1c(-c2ccc(C(F)(F)F)nc2)nc2c(N[C@H]3CCN(c4ccccn4)C3)ncnc21 [Compound 4-4, 9-ethyl-N-[(3S)-1-pyridin-2-ylpyrrolidin-3-yl]-8-[6-(trifluoromethyl)pyridin-3-yl]-9H-purin-6-amine]
10 | 0.0035 µM | >10 | CCCCNC(=O)N1CC[C@H](Nc2ncnc3c2nc(-c2cnc(C)nc2)n3CC)C1 [Compound 12-23, (3S)-N-butyl-3-{[9-ethyl-8-(2-methylpyrimidin-5-yl)-9H-purin-6-yl]amino}pyrrolidine-1-carboxamide]
11 | 0.02 µM | >10 | CCn1c(C#Cc2cncnc2)nc2c(N[C@H]3CCN(C(=O)C4CC4)C3)ncnc21 [Compound 16-2, N-[(3S)-1-(cyclopropylcarbonyl)pyrrolidin-3-yl]-9-ethyl-8-(pyrimidin-5-ylethynyl)-9H-purin-6-amine]
12 | 0.017 µM | >10 | CCC(=O)N1CC[C@H](N(C)c2ncnc3c2nc(-c2cnc(OC)c(C)c2)n3C)C1 [Compound 2-13, (S)-1-(3-((8-(6-methoxy-5-methylpyridin-3-yl)-9-methyl-9H-purin-6-yl)(methyl)amino)pyrrolidin-1-yl)propan-1-one]
13 | < 0.001 µM | >10 | CCn1c(-c2cnc(C)nc2)nc2c(N[C@H]3CCN(C(=O)C4CC4)[C@@H]3C)ncnc21 [Compound 2-94, N-[(2R,3S)-1-(cyclopropylcarbonyl)-2-methylpyrrolidin-3-yl]-9-ethyl-8-(2-methylpyrimidin-5-yl)-9H-purin-6-amine]
14 | < 0.001 µM | >10 | CCn1c(-c2ccc(OC)nc2)nc2c(N[C@H]3CCN(C(=O)C4CC4)C3)ncnc21 [Compound 2-50, N-[(3S)-1-(cyclopropylcarbonyl)pyrrolidin-3-yl]-9-ethyl-8-(6-methoxypyridin-3-yl)-9H-purin-6-amine]
15 | 0.013 µM | >10 | CCn1c(-c2cnc(C)nc2)nc2c(N[C@H]3CCN(C(=O)C4CC(=O)N(C(C)C)C4)C3)ncnc21 (mixture of isomers) [Compound 2-81, (R and S)-4-{[(3S)-3-{[9-ethyl-8-(2-methylpyrimidin-5-yl)-9H-purin-6-yl]amino}pyrrolidin-1-yl]carbonyl}-1-(1-methylethyl)pyrrolidin-2-one]
16 | < 0.001 µM | >10 | CCn1c(-c2cnc(OC)c(C)c2)nc2c(N[C@H]3CCN(C(=O)OC(C)(C)C)C3)ncnc21 [Compound 1-5, (S)-tert-butyl 3-((9-ethyl-8-(6-methoxy-5-methylpyridin-3-yl)-9H-purin-6-yl)amino)pyrrolidine-1-carboxylate]
17 | 0.71 µM | >10 | CCn1c(C(F)F)nc2c(N[C@H]3CCN(C(=O)C4CC45CCCC5)C3)ncnc21 (single isomer, unassigned) [Compound 7-20, (S or R)-8-(difluoromethyl)-9-ethyl-N-[(3S)-1-(spiro[2.4]hept-1-ylcarbonyl)pyrrolidin-3-yl]-9H-purin-6-amine]
18 | 0.0096 µM | >10 | CCn1c(-c2cnc(C)nc2)nc2c(N[C@H]3CCCN(c4ccccn4)C3)ncnc21 [Compound 4-5, 9-ethyl-8-(2-methylpyrimidin-5-yl)-N-[(3S)-1-pyridin-2-ylpiperidin-3-yl]-9H-purin-6-amine]
19 | 0.02 µM | >10 | CCn1c(-c2cnc(C)nc2)nc2c(N[C@H]3CCN(C(=O)C4(N)CC4)C3)ncnc21 [Compound 2-84, N-{(3S)-1-[(1-aminocyclopropyl)carbonyl]pyrrolidin-3-yl}-9-ethyl-8-(2-methylpyrimidin-5-yl)-9H-purin-6-amine]
20 | 0.0045 µM | >10 | CCn1c(-c2cnc(C)nc2)nc2c(N[C@H]3CCN(C(=O)N4CCOCC4)C3)ncnc21 [Compound 12-4, 9-ethyl-8-(2-methylpyrimidin-5-yl)-N-[(3S)-1-(morpholin-4-ylcarbonyl)pyrrolidin-3-yl]-9H-purin-6-amine]
21 | < 0.001 µM | >10 | CCn1ncc(-c2nc3c(N[C@H]4CCN(C(=O)C5CCOCC5)C4)ncnc3n2C)c1C [Compound 2-4, 8-(1-ethyl-5-methyl-1H-pyrazol-4-yl)-9-methyl-N-[(3S)-1-(tetrahydro-2H-pyran-4-ylcarbonyl)pyrrolidin-3-yl]-9H-purin-6-amine]
22 | 0.051 µM | >10 | CCC(=O)N1CC[C@H](Nc2ncnc3c2nc(CC(C)C)n3CC)C1 [Compound 7-2, 9-ethyl-8-(2-methylpropyl)-N-[(3S)-1-propanoylpyrrolidin-3-yl]-9H-purin-6-amine]
23 | 0.028 µM | >10 | CCC(=O)N1CCC[C@H](Nc2ncnc3c2nc(-c2cnc(C)nc2)n3CC)C1 [Compound 2-27, 9-ethyl-8-(2-methylpyrimidin-5-yl)-N-[(3S)-1-propanoylpiperidin-3-yl]-9H-purin-6-amine]
24 | 0.016 µM | >10 | CCn1c(C(=O)NCC(F)(F)F)nc2c(N[C@H]3CCN(c4ccccn4)C3)ncnc21 [Compound 6-10, 9-ethyl-6-{[(3S)-1-pyridin-2-ylpyrrolidin-3-yl]amino}-N-(2,2,2-trifluoroethyl)-9H-purine-8-carboxamide]
25 | 0.013 µM | >10 | CCn1c(-c2cnc(C)nc2)nc2c(N[C@H]3CCN(c4ncccc4C)C3)ncnc21 [Compound 4-10, 9-ethyl-N-[(3S)-1-(3-methylpyridin-2-yl)pyrrolidin-3-yl]-8-(2-methylpyrimidin-5-yl)-9H-purin-6-amine]
26 | 0.015 µM | >10 | CCn1ncc(-c2nc3c(NC4CN(C(=O)OC(C)(C)C)C4)ncnc3n2C)c1C [Compound 1-10, tert-butyl 3-((8-(1-ethyl-5-methyl-1H-pyrazol-4-yl)-9-methyl-9H-purin-6-yl)amino)azetidine-1-carboxylate]
27 | 0.006 µM | >10 | CCn1c(-c2cnc(C)nc2)nc2c(N[C@H]3CCN(C(=O)C4(C#N)CCCC4)C3)ncnc21 [Compound 2-62, 1-{[(3S)-3-{[9-ethyl-8-(2-methylpyrimidin-5-yl)-9H-purin-6-yl]amino}pyrrolidin-1-yl]carbonyl}cyclopentanecarbo-nitrile]
28 | 0.046 µM | >10 | CCn1c(-c2cnc(C)nc2)nc2c(N[C@H]3C[C@@H](C(=O)NC)N(C(=O)C4CC4)C3)ncnc21 [Compound 15-9, (4S)-1-(cyclopropylcarbonyl)-4-{[9-ethyl-8-(2-methylpyrimidin-5-yl)-9H-purin-6-yl]amino}-N-methyl-L-prolinamide]
29 | 0.0028 µM | >10 | CCn1c(-c2cnc(C)nc2)nc2c(N[C@H]3CCN(C(=O)[C@H]4CC[C@H](O)CC4)C3)ncnc21 [Compound 2-99, trans-4-{[(3S)-3-{[9-ethyl-8-(2-methylpyrimidin-5-yl)-9H-purin-6-yl]amino}pyrrolidin-1-yl]carbonyl}cyclohexanol]
30 | 0.06 µM | >10 | CCn1c(-c2cnc(C)nc2)nc2c(N[C@H]3C[C@@H](C(N)=O)N(C(=O)C4CC4)C3)ncnc21 [Compound 15-10, (4S)-1-(cyclopropylcarbonyl)-4-{[9-ethyl-8-(2-methylpyrimidin-5-yl)-9H-purin-6-yl]amino}-L-prolinamide]
